According to patent US20200205406A1, “MICROBIOCIDAL PHENYLAMIDINE DERIVATIVES WITH IMPROVED PLANT SAFETY PROPERTIES” (SYNGENTA PARTICIPATIONS AG, priority 2017, published 2020):

Compound `CCN(C)C=Nc1cc(OC)c(Oc2ccccc2)cc1C` has a melting point of 59 to 60 °C.
